Literature values in patent US8536378B2 (The Board of Trustees of the Leland Stanford Junior …, priority 2007, dated 2013).

Columns and labels:
latent HIV = settings: latently infected CD4+ T cells
[1] = estimate in reference note 20
[2] = test system: T-lymphoblastoid CEM-SS and C-8166 cell lines; settings: in vitro
[3] = compared with other phorbol esters such as PMA
latent HIV-1 = settings: fold more potent than prostratin

**Q.** For `CCCCCCCCCCCCCC(=O)O[C@@H]1[C@@H](C)[C@@]2(O)[C@@H](C=C(CO)C[C@]3(O)C(=O)C(C)=C[C@@H]23)[C@@H]2C(C)(C)[C@]12OC(C)=O` [PMA, phorbol 12-myristate-13-acetate, reference compound], which “HIV gene expression / activation of latent HIV” value (latent HIV) is on record?
**A.** Its value is “activate latent HIV”.

**Q.** What does the source list for `CC(=O)O[C@@]12C[C@@H](C)[C@@]3(O)[C@@H](C=C(CO)C[C@]4(O)C(=O)C(C)=C[C@@H]34)[C@@H]1C2(C)C` [prostratin, 12-deoxyphorbol-13-acetate]?
**A.** estimated oral bioavailability [1]: ~28%; CD4 receptors on cell surfaces (CD4 and CXCR4 receptors; CEM-SS and MT-4 cell lines): significantly reduced; cytotoxicity: concentration up to which no sign of cytotoxicity was observed ([2]; CEM-SS and C-8166 cell lines): > 25 µM; prostratin concentration at which cell viability was restored to the level of uninfected controls ([2]; HIV-infected CEM-SS and C-8166 cell lines): approximately 1 μM; HIV gene expression / activation of latent HIV (latent HIV): induces HIV gene expression; tumor-promoting activity [3]: does not exhibit the tumor-promoting activity

**Q.** For `CC1=C[C@H]2[C@@]3(O)[C@H](C)C[C@]4(OC(=O)Cc5ccccc5)C([C@@H]3C=C(CO)C[C@]2(O)C1=O)C4(C)C` (stereo partly drawn) [DPP, 12-deoxyphorbol-13-phenylacetate], which “downregulation of CD4 and CXCR4 receptors” value (CD4 and CXCR4 receptors) is on record?
**A.** Its value is “downregulates CD4 and CXCR4 receptors at nanomolar concentrations”.

**Q.** And the “potency in activating latent HIV-1 relative to prostratin” value (latent HIV-1)?
**A.** Its value is 20-30 fold.
